Experimental data from BigSolDB 2.1.

## O=C(c1ccc(F)cc1)c1ccc(F)cc1
In acetone, 293.15 K
  solubility (mole fraction): 0.0915
In acetone, 298.15 K
  solubility (mole fraction): 0.107
In acetone, 303.15 K
  solubility (mole fraction): 0.126
In acetone, 308.15 K
  solubility (mole fraction): 0.147
In acetone, 313.15 K
  solubility (mole fraction): 0.172
In acetone, 318.15 K
  solubility (mole fraction): 0.199
In acetone, 323.15 K
  solubility (mole fraction): 0.231
In acetone, 328.15 K
  solubility (mole fraction): 0.266
In acetone, 333.15 K
  solubility (mole fraction): 0.308
In acetonitrile, 293.15 K
  solubility (mole fraction): 0.03
In acetonitrile, 298.15 K
  solubility (mole fraction): 0.0386
In acetonitrile, 303.15 K
  solubility (mole fraction): 0.0491
In acetonitrile, 308.15 K
  solubility (mole fraction): 0.0631
In acetonitrile, 313.15 K
  solubility (mole fraction): 0.08
In acetonitrile, 318.15 K
  solubility (mole fraction): 0.101
In acetonitrile, 323.15 K
  solubility (mole fraction): 0.126
In acetonitrile, 328.15 K
  solubility (mole fraction): 0.158
In acetonitrile, 333.15 K
  solubility (mole fraction): 0.197
In ethanol, 293.15 K
  solubility (mole fraction): 0.0084
In ethanol, 298.15 K
  solubility (mole fraction): 0.0104
In ethanol, 303.15 K
  solubility (mole fraction): 0.0129
In ethanol, 308.15 K
  solubility (mole fraction): 0.016
In ethanol, 313.15 K
  solubility (mole fraction): 0.0197
In ethanol, 318.15 K
  solubility (mole fraction): 0.0242
In ethanol, 323.15 K
  solubility (mole fraction): 0.0297
In ethanol, 328.15 K
  solubility (mole fraction): 0.0364
In ethanol, 333.15 K
  solubility (mole fraction): 0.0447
In ethyl acetate, 293.15 K
  solubility (mole fraction): 0.101
In ethyl acetate, 298.15 K
  solubility (mole fraction): 0.117
In ethyl acetate, 303.15 K
  solubility (mole fraction): 0.134
In ethyl acetate, 308.15 K
  solubility (mole fraction): 0.155
In ethyl acetate, 313.15 K
  solubility (mole fraction): 0.177
In ethyl acetate, 318.15 K
  solubility (mole fraction): 0.203
In ethyl acetate, 323.15 K
  solubility (mole fraction): 0.231
In ethyl acetate, 328.15 K
  solubility (mole fraction): 0.264
In ethyl acetate, 333.15 K
  solubility (mole fraction): 0.299
In isobutanol, 293.15 K
  solubility (mole fraction): 0.0097
In isobutanol, 298.15 K
  solubility (mole fraction): 0.0125
In isobutanol, 303.15 K
  solubility (mole fraction): 0.0158
In isobutanol, 308.15 K
  solubility (mole fraction): 0.02
In isobutanol, 313.15 K
  solubility (mole fraction): 0.0255
In isobutanol, 318.15 K
  solubility (mole fraction): 0.0322
In isobutanol, 323.15 K
  solubility (mole fraction): 0.0407
In isobutanol, 328.15 K
  solubility (mole fraction): 0.0511
In isobutanol, 333.15 K
  solubility (mole fraction): 0.0643
In isopropanol, 293.15 K
  solubility (mole fraction): 0.0079
In isopropanol, 298.15 K
  solubility (mole fraction): 0.0101
In isopropanol, 303.15 K
  solubility (mole fraction): 0.0131
In isopropanol, 308.15 K
  solubility (mole fraction): 0.017
In isopropanol, 313.15 K
  solubility (mole fraction): 0.0217
In isopropanol, 318.15 K
  solubility (mole fraction): 0.0276
In isopropanol, 323.15 K
  solubility (mole fraction): 0.0352
In isopropanol, 328.15 K
  solubility (mole fraction): 0.0445
In isopropanol, 333.15 K
  solubility (mole fraction): 0.056
In methanol, 293.15 K
  solubility (mole fraction): 0.0062
In methanol, 298.15 K
  solubility (mole fraction): 0.0076
In methanol, 303.15 K
  solubility (mole fraction): 0.0093
In methanol, 308.15 K
  solubility (mole fraction): 0.0114
In methanol, 313.15 K
  solubility (mole fraction): 0.0138
In methanol, 318.15 K
  solubility (mole fraction): 0.0168
In methanol, 323.15 K
  solubility (mole fraction): 0.0204
In methanol, 328.15 K
  solubility (mole fraction): 0.0245
In methanol, 333.15 K
  solubility (mole fraction): 0.0297
In methyl acetate, 293.15 K
  solubility (mole fraction): 0.0956
In methyl acetate, 298.15 K
  solubility (mole fraction): 0.112
In methyl acetate, 303.15 K
  solubility (mole fraction): 0.131
In methyl acetate, 308.15 K
  solubility (mole fraction): 0.152
In methyl acetate, 313.15 K
  solubility (mole fraction): 0.177
In methyl acetate, 318.15 K
  solubility (mole fraction): 0.205
In methyl acetate, 323.15 K
  solubility (mole fraction): 0.238
In methyl acetate, 328.15 K
  solubility (mole fraction): 0.274
In methyl acetate, 333.15 K
  solubility (mole fraction): 0.316
In n-butanol, 293.15 K
  solubility (mole fraction): 0.011
In n-butanol, 298.15 K
  solubility (mole fraction): 0.014
In n-butanol, 303.15 K
  solubility (mole fraction): 0.0177
In n-butanol, 308.15 K
  solubility (mole fraction): 0.0225
In n-butanol, 313.15 K
  solubility (mole fraction): 0.0282
In n-butanol, 318.15 K
  solubility (mole fraction): 0.0354
In n-butanol, 323.15 K
  solubility (mole fraction): 0.0444
In n-butanol, 328.15 K
  solubility (mole fraction): 0.0555
In n-butanol, 333.15 K
  solubility (mole fraction): 0.0691
In n-propanol, 293.15 K
  solubility (mole fraction): 0.0103
In n-propanol, 298.15 K
  solubility (mole fraction): 0.0127
In n-propanol, 303.15 K
  solubility (mole fraction): 0.0159
In n-propanol, 308.15 K
  solubility (mole fraction): 0.0197
In n-propanol, 313.15 K
  solubility (mole fraction): 0.0246
In n-propanol, 318.15 K
  solubility (mole fraction): 0.0305
In n-propanol, 323.15 K
  solubility (mole fraction): 0.0378
In n-propanol, 328.15 K
  solubility (mole fraction): 0.0467
In n-propanol, 333.15 K
  solubility (mole fraction): 0.0576
